Experimental data published in patent US20230241071A1, “COMBINATION TREATMENT OF LIVER DISORDERS” (Terns Pharmaceuticals, Inc., priority 2021, published 2023).
Marks after values point to notes of the source that are not given here.

Tests used:
[1] = test system: rat CDHFD+NaNO2 NASH model; experiment: Rat CDHFD+NaNO2 NASH model, liver RNAseq; type: in vivo; settings: 8 wk, Compound 3 3 mg/kg, Compound 1 25 mg/kg; for Down DEGs / Total DEGs / Up DEGs: liver RNAseq vs vehicle NASH control, adj. p<0.01, fold-change ≥1.5
Method: Animal handling: After arrival, the rats were left for a 2-week acclimation period, during which they were accustomed to the animal facility staff and trained on the procedure of oral gavage. After 2 weeks the animals were put on CHDFD (choline deficient high fat diet) and pre-fed for 4 weeks. Then the rats were started on treatment with test compounds, and 3× per week i.p. NaNO2 injections, while they remained on CDHFD, for an additional 8 weeks. NaNO2 was administered at 25 mg/kg i.p. dissolved in PBS 3 times a week (on Mondays, Wednesdays, and Fridays) for 8 weeks while on CDHFD.
(§1) Final Sacrifice: Half of the animals of each treatment group were terminated on day 84. The other half of the animals in each group were terminated on the following day, day 85. On the day of sacrifice the animals were fasted for 2 h and received a final treatment with the respective test substance. After the final compound treatment, the animals had no more access to food until sacrifice. At 4 h after the last administration all animals were sacrificed and livers were sampled for further analysis.
Animal handling: After arrival, the rats were left for a 2-week acclimation period, during which they were accustomed to the animal facility staff and trained on the procedure of oral gavage. After 2 weeks the animals were placed on a choline deficient high fat diet (CDHFD) and pre-fed for 4 weeks to induce steatosis and a NASH-like disease phenotype. Rats were then treated with test compounds for an additional 8 weeks while on CDHFD. Concomitant with compound treatment, rats were administered sodium nitrite (NaNO2, 25 mg/kg dissolved in PBS) by triweekly intraperitoneal (IP) injection to induce liver fibrosis.
as §1, with “2 hours” for “2 h”, “4 hours” for “4 h”
Sampling and analysis: Small liver pieces were harvested into RNAlater (Thermo Fisher Scientific Dreieich Germany) and stored at −20° C. prior to RNA sequencing (RNAseq) at MedGenome Inc. RNAseq analysis was performed on liver tissue by Illumina sequencing using standard methodologies. Briefly, RNAseq libraries (n=5 per group) were generated using Illumina Truseq stranded mRNA kits and sequencing was performed on a NovaSeq 6000 sequencer. Alignment was performed using STAR (v2.7.3a) aligner and reads mapping to ribosomal and mitochondrial genome were removed prior to alignment. Raw read counts were estimated using HTSeq (v0.11.1) and normalized using DESeq2 (v2.22.2). Differentially expressed genes (DEGs) were determined using DESeq2 (R Bioconductor package).

[2] = target: T1, BCRP (Homo sapiens, UniProt Q9UNQ0)
T1 sequence (Q9UNQ0 1-655): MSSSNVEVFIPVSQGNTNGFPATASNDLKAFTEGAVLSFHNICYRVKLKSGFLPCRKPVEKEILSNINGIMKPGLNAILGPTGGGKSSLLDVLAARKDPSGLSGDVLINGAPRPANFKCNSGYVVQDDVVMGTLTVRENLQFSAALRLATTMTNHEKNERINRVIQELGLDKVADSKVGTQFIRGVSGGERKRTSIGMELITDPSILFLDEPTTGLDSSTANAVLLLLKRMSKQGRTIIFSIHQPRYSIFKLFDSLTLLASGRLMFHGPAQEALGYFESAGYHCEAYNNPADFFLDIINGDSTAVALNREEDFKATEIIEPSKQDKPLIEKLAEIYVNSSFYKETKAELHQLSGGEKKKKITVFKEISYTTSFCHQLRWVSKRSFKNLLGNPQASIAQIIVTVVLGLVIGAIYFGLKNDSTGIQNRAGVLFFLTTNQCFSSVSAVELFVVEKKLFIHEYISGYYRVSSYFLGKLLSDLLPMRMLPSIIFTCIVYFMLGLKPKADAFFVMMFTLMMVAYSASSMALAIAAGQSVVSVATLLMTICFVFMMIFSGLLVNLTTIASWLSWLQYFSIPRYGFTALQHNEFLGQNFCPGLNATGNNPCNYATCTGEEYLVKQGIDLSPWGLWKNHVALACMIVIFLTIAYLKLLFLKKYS

[3] = Trough plasma compound levels in DIO-GAN mice; type: in vivo, mouse; settings: plasma 21-24 h post final dose
Method: Terminal plasma samples were harvested by cardiac puncture approximately 21-24 hours after the last administration of compound(s). Terminal plasma samples were analyzed by high resolution LC-MS/MS using a Triple Quad 6500+ instrument. 20 μL of plasma sample was mixed with 200 μL of internal standard solution (100 ng/mL Labetalol+100 ng/mL Tolbutamide in acetonitrile), vortexed, and centrifuged at 4,000 rpm for 15 min at 4° C. […] The internal standard 1 (retention time: 0.87 min) and standard 2 (retention time: 0.96 min) were used for quantification of Compound 3 (retention time: 0.87 min) and Compound 2 (retention time: 0.97 min), respectively. The internal standard (retention time: 0.76 min), was used for quantification of the glucuronide metabolite of Compound 3 (retention time: 0.77 min). Calibration curves (1-3000 ng/mL) were generated in a matrix of mouse plasma (pooled vehicle control) for each analyte.

[4] = group Combo-high, Compound 3 10 mg/kg + Compound 2 10 mg/kg (14)
[5] = group Combo-med, Compound 3 10 mg/kg + Compound 2 2 mg/kg (16)

With `COC1CCN(c2ncc(OC/C(=C/F)CN)cn2)CC1` [Compound 1, (E)-3-fluoro-2-(((2-(4-methoxypiperidin-1-yl)pyrimidin-5-yl)oxy)methyl)prop-2-en-1-amine] the “Down DEGs” value [1] was 641, the “Total DEGs” value [1] was 847 and the “Up DEGs” value [1] was 206.

With `N#Cc1nn(-c2cc(Cl)c(Oc3n[nH]c(=O)c4ccccc34)c(Cl)c2)c(=O)[nH]c1=O` [Compound 2, 2-(3,5-dichloro-4-((4-oxo-3,4-dihydrophthalazin-1-yl)oxy)phenyl)-3,5-dioxo-2,3,4,5-tetrahydro-1,2,4-triazine-6-carbonitrile] the IC50 [2] was 9.37 µM, the “Mean trough analyte concentration (SD)” value [3, 4] was 143.0 (87.9) ng/mL and the “Mean trough analyte concentration (SD)” value [3, 5] was 49.5 (42.9) ng/mL. The “Mean trough analyte concentration (SD)” value ([3]; group Compound 2-high 10 mg/kg (16)) was 320.0 (189.9) ng/mL and the “Mean trough analyte concentration (SD)” value ([3]; group Compound 2-med 2 mg/kg (15)) was 135.5 (62.0) ng/mL.

With `Cn1cc(C(=O)O)c2ccc(N3CCC(OCc4c(-c5c(Cl)cccc5Cl)noc4C4CC4)CC3)cc21` [Compound 3] the IC50 [2] was 4.39 µM, the “Mean trough analyte concentration (SD)” value [3, 4] was 3.3 (1.8) ng/mL and the “Mean trough analyte concentration (SD)” value [3, 5] was 5.8 (3.5) ng/mL. The “Mean trough analyte concentration (SD)” value ([3]; group Compound 3 10 mg/kg (16)) was 7.4 (3.8) ng/mL, the “Down DEGs” value [1] was 118 and the “Total DEGs” value [1] was 309. For the same compound, the “Up DEGs” value [1] was 191, the “Fabp2 differential gene expression relative to vehicle control” value ([1]; liver RNAseq) was −1.02* log2-fold change and the “Irs1 differential gene expression relative to vehicle control” value ([1]; liver RNAseq) was −0.03 log2-fold change. The “Irs2 differential gene expression relative to vehicle control” value ([1]; liver RNAseq) was 0.27 log2-fold change, the “Ldlr differential gene expression relative to vehicle control” value ([1]; liver RNAseq) was 0.4 log2-fold change and the “Ldlrap1 differential gene expression relative to vehicle control” value ([1]; liver RNAseq) was −0.07 log2-fold change. The “Lrp1 differential gene expression relative to vehicle control” value ([1]; liver RNAseq) was 0.51 log2-fold change, the “Lrp2 differential gene expression relative to vehicle control” value ([1]; liver RNAseq) was 0.33 log2-fold change and the “Ppara differential gene expression relative to vehicle control” value ([1]; liver RNAseq) was 0.36 log2-fold change. The “Ppargcla differential gene expression relative to vehicle control” value ([1]; liver RNAseq) was 0.25 log2-fold change, the “Rxra differential gene expression relative to vehicle control” value ([1]; liver RNAseq) was 0.03 log2-fold change and the “Slc27a1 differential gene expression relative to vehicle control” value ([1]; liver RNAseq) was 0.16 log2-fold change. The “Slc27a5 differential gene expression relative to vehicle control” value ([1]; liver RNAseq) was 0.5 log2-fold change, the “Vegfa differential gene expression relative to vehicle control” value ([1]; liver RNAseq) was 0.48 log2-fold change and the “Vegfc differential gene expression relative to vehicle control” value ([1]; liver RNAseq) was −0.28 log2-fold change. For the same compound, the “Vldlr differential gene expression relative to vehicle control” value ([1]; liver RNAseq) was −0.58 log2-fold change.
